Data as given in patent publication US11267812B2 (Mirati Therapeutics, Inc., priority 2016, dated 2022).
Read-outs that look alike come from different tables or passages of the source.

How the values were obtained:
[1] = biological target: KRas G12C (Homo sapiens, UniProt P01116, C118S/C51S/C80L/G12C); assay: KRas G12C Modification Assay (LCMS detection of covalent adduct); assay type: binding; settings: 5 μM compound, 3 hours
Protocol: A 10 μL aliquot of each protein solution was then transferred to a 384 well microtiter plate. Initial compound stocks were generated at fifty times their desired final assay concentration in DMSO.
Exemplary compounds of Formula (I) were diluted 25-fold into K-Ras Assay Buffer to a final of two times their final concentration. A 10 μL aliquot of each diluted compound solution was then added to each of the protein solutions in the microtiter plate to initiate reaction. […] At each time point, the reactions were quenched with 20 μL of a 25 mM acetic acid solution. […] Once all reactions were quenched, the plates were heat sealed and the samples were injected into a LC/MS system for data acquisition.
Samples were injected in their liquid phase onto a C-3 reverse phase column to remove assay buffer and prepare the samples for mass spectrometer. The proteins were eluted from the column using an acetonitrile gradient and fed directly into the mass analyzer. Initial raw data analysis took place in Agilent MassHunter software immediately post data acquisition.
Raw data analysis of the intact protein was exclusively a deconvolution of the multiple charge states of each protein in solution using a maximum entropy deconvolution provided in Mass Hunter. To minimize complexity, only the data over limited mass ranges were considered for analysis, with a minimum of one Dalton mass step intervals. The heights of all masses identified during raw data analysis were exported to be further analyzed in Spotfire® data analysis software.
Final data analysis was a multistep process in the Spotfire® data analysis software package. Briefly, each protein mass was calculated as a percent of the total signal of that sample, that percentage was then normalized to the percentage of signal of the protein in the absence of reactive compounds. Those normalized signals were reported as normalized percent of control (POC). […] Key: “A”≤25% POC; “B”>25% POC≤50% POC; “C”>50% POC and ND=not determined.

[2] = system: Phospho-ERK in NCI-H358 cells expressing KRas G12C; assay: Cellular inhibition of KRas G12C by Phospho-ERK measurement in NCI-H358 cells; assay type: cell-based; settings: Homo sapiens, read-out: IC50 (pERK(Thr202/Tyr204) normalized with GAPDH)
Outline: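 After 8–12 h attachment, NCI-H358 cells were treated with compounds for 3 h (0.5% DMSO final), fixed, methanol-permeabilized and immunostained. pERK(Thr202/Tyr204) was read by infrared imaging and normalized to GAPDH as percent of DMSO control. IC50 came from a 4-parameter fit.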

[3] = NCI-H358 cells, 3 hours compound treatment

| SMILES | POC (normalized percent of control, KRas G12C modification) [1] | IC50 ([2]; NCI-H358, 3 h) [nM] | IC50 [2, 3] [nM] |
| --- | --- | --- | --- |
| C=CC(=O)N1CCN(c2nc(OC[C@@H]3CCCN3C)nc3c2CCN(c2cccc4ccccc24)C3)CC1CC#N (stereo partly drawn) [Example 147, 2-[4-[2-[[(2S)-1-methylpyrrolidin-2-yl]methoxy]-7-(1-naphthyl)-6,8-dihydro-5H-pyrido[3,4-d]pyrimidin-4-yl]-1-prop-2-enoyl-piperazin-2-yl]acetonitrile] | C (“C”>50% POC) | 1 to 1000 | – |
| C=CC(=O)N1CCN(c2nc(OC[C@@H]3CCCN3C)nc3c2CCN(c2c(F)c(O)cc4ccccc24)C3)CC1 [Example 249, 1-[4-[7-(2-fluoro-3-hydroxy-1-naphthyl)-2-[[(2S)-1-methylpyrrolidin-2-yl]methoxy]-6,8-dihydro-5H-pyrido[3,4-d]pyrimidin-4-yl]piperazin-1-yl]prop-2-en-1-one] | C (“C”>50% POC) | – | 1 to 1000 |
| C=CC(=O)N1CCN(c2nc(OC[C@@H]3CCCN3C)nc3c2CCN(c2cccc4ccncc24)C3)CC1CC#N (stereo partly drawn) [Example 244, 2-[4-[7-(8-isoquinolyl)-2-[[(2S)-1-methylpyrrolidin-2-yl]methoxy]-6,8-dihydro-5H-pyrido[3,4-d]pyrimidin-4-yl]-1-prop-2-enoyl-piperazin-2-yl]acetonitrile] | C (“C”>50% POC) | – | 1 to 1000 |
| C=CC(=O)N1CCN(c2nc(O[C@H](C)CN(C)CC)nc3c2CCN(c2cc(O)cc4ccccc24)C3)CC1 [Example 131, 1-[4-[2-[(1R)-2-[ethyl(methyl)amino]-1-methyl-ethoxy]-7-(3-hydroxy-1-naphthyl)-6,8-dihydro-5H-pyrido[3,4-d]pyrimidin-4-yl]piperazin-1-yl]prop-2-en-1-one] | C (“C”>50% POC) | – | 1 to 1000 |
| C=CC(=O)N1CCN(c2nc(OC[C@@H]3CCCN3C)nc3c2CCN(c2c(C)ccc4[nH]ncc24)C3)CC1CC#N (stereo partly drawn) [Example 148, 2-[4-[7-(5-methyl-1H-indazol-4-yl)-2-[[(2S)-1-methylpyrrolidin-2-yl]methoxy]-6,8-dihydro-5H-pyrido[3,4-d]pyrimidin-4-yl]-1-prop-2-enoyl-piperazin-2-yl]acetonitrile] | C (“C”>50% POC) | – | 1 to 1000 |
| C=CC(=O)N1CCN(c2nc(OCCCN3C[C@H]4C[C@@H]3CO4)nc3c2CCN(c2cc(O)cc4ccccc24)C3)CC1 [Example 185, 1-(4-(2-(3-((1R,4R)-2-oxa-5-azabicyclo[2.2.1]heptan-5-yl)propoxy)-7-(3-hydroxynaphthalen-1-yl)-5,6,7,8-tetrahydropyrido[3,4-d]pyrimidin-4-yl)piperazin-1-yl)prop-2-en-1-one] | C (“C”>50% POC) | – | 1 to 1000 |
| C=CC(=O)N1CCN(c2nc(OC[C@H]3CCCN3C)nc3c2CCN(c2cccc4ccccc24)C3)C[C@@H]1CC#N [Example 267, 2-((S)-1-acryloyl-4-(2-(((R)-1-methylpyrrolidin-2-yl)methoxy)-7-(naphthalen-1-yl)-5,6,7,8-tetrahydropyrido[3,4-d]pyrimidin-4-yl)piperazin-2-yl)acetonitrile] | C (“C”>50% POC) | 1 to 1000 | – |
| C=CC(=O)N1CCN(c2nc(OC[C@@H]3CCCN3C)nc3c2CCN(c2cccc4ccc(C)cc24)C3)CC1CC#N (stereo partly drawn) [Example 245, 2-[4-[7-(7-methyl-1-naphthyl)-2-[[(2S)-1-methylpyrrolidin-2-yl]methoxy]-6,8-dihydro-5H-pyrido[3,4-d]pyrimidin-4-yl]-1-prop-2-enoyl-piperazin-2-yl]acetonitrile] | C (“C”>50% POC) | – | 1 to 1000 |
